Results reported in patent US12497364B2, “Compound for the determination of the protein FKBP12 and a sensor unit comprising it” (UNIVERSITA DEGLI STUDI DI FIRENZE, priority 2019, dated 2025).

How the values were obtained:
FKBP12 [1] = biological target: T1, FKBP12 (Homo sapiens, UniProt P62942); assay: QCM microgravimetric measurement of FKBP12 bound to the self-assembled monolayer (SAM), Langmuir fit; type: binding; conditions: for Binding of FKBP12 in solution to the SAM (FIG. 5): mass of FKBP12 bound versus FKBP12 concentration in solution
T1 construct: purchased Interuniversity Magnetic Resonance Consortium of Paramagnetic Metalloproteins, CIRMMP (Florence, Italy); host or cells: Escherichia coli
Procedure: FKBP12 expressed in Escherichia coli, molecular weight 11900, purity >95% was supplied by the Interuniversity Magnetic Resonance Consortium of Paramagnetic Metalloproteins, CIRMMP (Florence, Italy). The purity of FKBP12 was determined by SDS electrophoresis. K2HPO4 and KH2PO4 for the preparation of the phosphate buffer was obtained from Sigma-Aldrich (Italy). All measurements were made using ultrapure water (resistivity=18 MΩ cm, pH=5.6 at 20° C.) obtained with a Milli-RO equipment coupled with a Milli-Q set up (Millipore, Italy).
(§1) The concentration of the stock solutions of FKBP12 in PBS buffer (pH 7.4, 0.15 M NaCl) was checked by UV/Vis measurements using ε280=9970 M^−1 cm^−1. The stock solution of FKBP12 was diluted to reach the concentrations used for the calibration straight line.
(§2) The microgravimetric analyses were carried out with a Quartz-Crystal microbalance (QCM-Z 500 from KSV-Finland). This instrumentation is equipped with a Peltier element for controlling the temperature inside the measurement chamber. All experiments were performed at a temperature of T=20.0±0.1° C.
The frequency and dissipation data for all recorded harmonics were processed with the QCMBrowse software which directly provides adsorbed mass in nanograms/cm^2, thickness of the monolayer in nanometers and viscoelastic parameters of the system.
The gold-coated piezoelectric quartz support covered with the SAMs as described above in Example 2, was brought into contact with solutions of increasing concentration of the FKBP12 protein and the concentration of the protein bound to the self-assembled monolayer SAM at saturation was recorded with gravimetric measurements.
Two different miniaturized versions of an open chamber QCM quartz crystal microbalance (from QCM KSV, Finland and an OpenQCM, Italy modified by the inventors) were also used as a device, allowing the use of small measurement volumes (less than 100 microliters) of the solution to analyse.
Again with reference to FIG. 5, it can be observed that in all the examined cases there is a saturation trend of the curves, which flatten once the sites available for binding the FKBP protein are exhausted. Considering the structure reached at this concentration as the final equilibrium structure, the relative structural parameters reported in the following Table 2 were calculated.
The trend shown in FIG. 5 can be rationalized through the Langmuir binding and/or adsorption equation: Δm/A=(Δm/A)sat[C]/[C]+kd
The application of this model to the data obtained from the microgravimetric measurements allowed to obtain a detailed picture of the interaction mechanism and the energetics involved, in particular we obtained the maximum surface density of FKBP12 (to saturation), the dissociation constant Kd for FKBP12/receptor in the nanosensor and free energy of physi-sorption. The values obtained are shown in Table 3 below, for all the types of SAMs examined.

FKBP12 [2] = biological target: T1, FKBP12; assay: Duration of operation of the SAM and its reconditioning (QCM); conditions: reconditioning with imidazole or with ethanol
Procedure: The microgravimetric measurements described above were repeated on freshly prepared SAMs or aged up to 4 months, finding the same results, at least for SAMs stored in closed containers saturated with N2.
Measurements were also carried out on SAMs already used for a measurement, after reconditioning with imidazole or with ethanol. […] The same result was achieved by leaving in incubation the SAM in solution of the reconditioning solvent.

FKBP12 [3] = biological target: T1, FKBP12; assay: Calibration straight line for FKBP12 on the SAM nanosensor (QCM)
Procedure: as §1, §2
From the analysis of the calibration straight lines obtained for the systems examined, the linearity intervals and the experimental limit of detection (LOD) were obtained (wherein LOD means the smallest amount of measurable analyte with acceptable accuracy and precision) for each sensor tested, considering that the maximum sensitivity to the mass in the cell for liquids of the instrumentation used is 0.5 ng/cm^2. This limit may vary depending on the analytical instrumentation adopted for the same SAM used.

T1 sequence (P62942 whole entry): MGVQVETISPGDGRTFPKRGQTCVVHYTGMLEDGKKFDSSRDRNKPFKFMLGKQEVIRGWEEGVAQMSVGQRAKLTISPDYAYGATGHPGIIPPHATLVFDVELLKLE

(M/Area)max (Langmuir FIT), maximum surface density of FKBP12 at saturation (FKBP12 [1]; Table 2, SAM on gold-coated quartz crystal)	Kd (FKBP12 [1]; Table 2, SAM on gold-coated quartz crystal, T=20.0 °C, pseudo-Kd for mixed systems)	(Maa/Area)max (Langmuir FIT) (FKBP12 [1]; Table 3)	Area available for FKBP12 to saturation (FKBP12 [1]; Table 3, experimental data, at saturation)	QCM frequency before addition of FKBP12 versus after rinsing with the reconditioning solvent (FKBP12 [2])	Linear interval of the response to FKBP12 (FKBP12 [3]; FKBP12 concentration in solution, QCM mass sensitivity 0.5 ng/cm^2)	Limit of Detection (LOD) (FKBP12 [3]; LOD = 3x (y-intercept standard deviation)/slope of the calibration curve)	Structure (SMILES)	Binding of FKBP12 in solution to the SAM (FIG. 5) (FKBP12 [1])
123 ng/cm^2	750 pM	123 ng/cm^2	1910 Å^2	identical	10 to 800 pM	8.0 pM	O=C(CCCCCCCCCCS)Oc1ccc(C(=O)C(=O)N2CCCC[C@H]2C(=O)NCCCc2ccccc2)cc1 [GPS-SH1, (S)-4-(2-oxo-2-(2-((3-phenylpropyl)carbamoyl)piperidin-1-yl)acetyl)phenyl 11-mercaptoundecanoate]	binds
							CCCCCCCCCCCCS [C12SH, reference compound]	no interaction with the FKBP protein in solution is observed
